Experimental data as given in patent US6979666B2, “Dithianon-based fungicidal mixtures” (BASF Aktiengesellschaft, priority 2002, dated 2005).

Test system: Alternaria solani
Assay: Activity against early blight of tomato caused by Alternaria solani (protective spray on potted tomato plants)
Format: in vivo
Settings: tomato leaves, rated after 5 days, untreated control 72% infection
Description: The active compounds, separately or together, were prepared as a stock solution with 0.25% by weight of active compound in acetone or DMSO. 1% by weight of the emulsifier Uniperol® EL (wetting agent having emulsifying and dispersing action based on ethoxylated alkylphenols) was added to this solution, and the solution was diluted with water to the desired concentration.
Use example: Activity against early blight of tomato caused by Alternaria solani
Leaves of potted plants of the cultivar “Groβe Fleischtomate St. Pierre” were sprayed to runoff point with an aqueous suspension having the concentration of active compound stated below. The next day, the leaves were infected with an aqueous spore suspension of Alternaria solani in a 2% strength biomalt solution having a density of 0.17×10^6 spores/ml. The plants were then placed in a water-vapor-saturated chamber at 20–22° C. After 5 days, the early blight on the untreated, but infected control plants had developed to such an extent that the infection could be determined visually in %.
Evaluation is carried out by determining the infected leaf areas in percent. These percentages are converted into efficacies.
The efficacy (E) is calculated as follows using Abbot's formula: E=(1−α/β)·100 • α corresponds to the fungal infection of the treated plants in % and • β corresponds to the fungal infection of the untreated (control) plants in %
An efficacy of 0 means that the infection level of the treated plants corresponds to that of the untreated control plants; an efficacy of 100 means that the treated plants were not infected.
The expected efficacies of the active compound mixtures are determined using Colby's formula [S.R. Colby, Weeds 15, 20–22 (1967)] and compared with the observed efficacies.
Colby's Formula: E=x+y−x·y/100 • E expected efficacy, expressed in percent of the untreated control, when using the mixture of the active compounds A and B at the concentrations a and b • x efficacy, expressed in % of the untreated control, when using active compound A at a concentration of a • y efficacy, expressed in % of the untreated control, when using active compound B at a concentration of b

[1] = 8 ppm active compound in the spray liquid
[2] = 16 ppm active compound in the spray liquid
[3] = 63 ppm active compound in the spray liquid
[4] = 31 ppm active compound in the spray liquid

| SMILES | Efficacy in % of the untreated control [1] | Efficacy in % of the untreated control [2] | Efficacy in % of the untreated control [3] | Efficacy in % of the untreated control [4] |
| --- | --- | --- | --- | --- |
| Cc1cc(C2CC2)nc(Nc2ccccc2)n1 [II-2, cyprodinil] | 44% | 72% | 86% | – |
| N#Cc1sc2c(=O)c3ccccc3c(=O)c=2sc1C#N [I, dithianon] | 44% | 65% | 86% | 79% |
| Cc1cc(C)nc(Nc2ccccc2)n1 [II-1, pyrimethanil] | 0% | 0% | 0% | 0% |
